The values below come from patent US20240239861A1, “GLUCAGON-RECEPTOR SELECTIVE POLYPEPTIDES AND METHODS OF USE THEREOF” (i2O Therapeutics, Inc., priority 2016, published 2024).

Where a SMILES comes first, the peptide text is derived from it. [ ]: non-standard residue; d: D form. Aib = CC(C)(N)C(=O)O

The target of one data set is human GLP-1R (Homo sapiens, UniProt P43220). Briefly: Peptide-receptor mediated cAMP accumulation (LANCE Ultra cAMP) in CHO-K1 cells transfected with human GLP-1R. Format: cell-based. The note with it: hGLP1 pEC50 (cAMP mean (n = 3): 11 point curve starting at 1 nM, Table 3). On the technique in general: Changes in cAMP serve as a functional read-out for many G protein-coupled receptors.

A further data set can be described thus: in vivo. The settings on record: male, rat.

human GLP-1R, sequence (P43220 24-463): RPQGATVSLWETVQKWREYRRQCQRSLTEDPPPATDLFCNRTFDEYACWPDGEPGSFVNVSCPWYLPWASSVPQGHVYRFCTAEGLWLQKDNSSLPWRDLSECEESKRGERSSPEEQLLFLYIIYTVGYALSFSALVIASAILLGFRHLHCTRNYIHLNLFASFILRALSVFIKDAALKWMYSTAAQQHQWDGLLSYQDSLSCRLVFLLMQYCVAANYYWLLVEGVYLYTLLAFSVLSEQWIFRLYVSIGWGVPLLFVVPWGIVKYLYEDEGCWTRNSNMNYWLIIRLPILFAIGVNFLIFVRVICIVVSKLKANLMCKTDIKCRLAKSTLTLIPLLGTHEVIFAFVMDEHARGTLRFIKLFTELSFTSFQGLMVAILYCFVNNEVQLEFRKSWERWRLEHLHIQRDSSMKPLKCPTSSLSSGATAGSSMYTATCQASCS

In the case of `CC[C@H](C)[C@H](NC(=O)[C@H](CC(=O)O)NC(=O)[C@H](CC(C)C)NC(=O)[C@H](Cc1ccc(O)cc1)NC(=O)[C@H](CCCCN)NC(=O)[C@H](CO)NC(=O)[C@H](Cc1ccc(O)cc1)NC(=O)[C@H](CC(=O)O)NC(=O)[C@H](CO)NC(=O)[C@@H](NC(=O)[C@H](Cc1ccccc1)NC(=O)[C@@H](NC(=O)CNC(=O)[C@H](Cc1c[nH]cn1)NC(=O)[C@H](CO)NC(=O)[C@@H](N)Cc1ccc(O)cc1)[C@@H](C)O)[C@@H](C)O)C(=O)N[C@@H](CCCCN)C(=O)N[C@@H](CCCNC(=N)N)C(=O)N[C@@H](C)C(=O)N[C@@H](CCC(N)=O)C(=O)N[C@@H](CCC(=O)O)C(=O)N[C@@H](Cc1ccccc1)C(=O)N[C@H](C(=O)NC(C)(C)C(=O)N[C@@H](Cc1c[nH]c2ccccc12)C(=O)N[C@@H](CC(C)C)C(=O)N[C@@H](CCC(=O)O)C(=O)N[C@@H](CC(=O)O)C(=O)N[C@@H](CCC(=O)O)C(=O)N1CCC[C@H]1C(=O)N[C@@H](CO)C(=O)N[C@@H](CO)C(=O)NCC(=O)N[C@@H](C)C(=O)N1CCC[C@H]1C(=O)N1CCC[C@H]1C(=O)N1CCC[C@H]1C(=O)N[C@@H](CO)C(=O)O)C(C)C` [Compound A52] (H-YSHGTFTSDYSKYLDIKRAQEFV[Aib]WLEDEPSSGAPPPS-OH), the concentration for a half-maximal effect (EC50) (commonly the concentration giving half of the maximal effect) on human GLP-1R is > 1 nM. Besides, the clearance (usually the rate of elimination divided by the concentration) in the data set “in vivo” was determined as 29 mL/min/kg.

As to `CC(C)C[C@H](NC(=O)[C@H](Cc1ccc(O)cc1)NC(=O)[C@H](CCCCN)NC(=O)[C@H](CO)NC(=O)[C@H](Cc1ccc(O)cc1)NC(=O)[C@H](CC(=O)O)NC(=O)[C@H](CO)NC(=O)[C@@H](NC(=O)[C@H](Cc1ccccc1)NC(=O)[C@@H](NC(=O)CNC(=O)[C@H](Cc1c[nH]cn1)NC(=O)[C@H](CO)NC(=O)[C@@H](N)Cc1ccc(O)cc1)[C@@H](C)O)[C@@H](C)O)C(=O)N[C@@H](CC(=O)O)C(=O)NC(C)(C)C(=O)N[C@@H](CCCCN)C(=O)N[C@@H](CCCNC(=N)N)C(=O)N[C@@H](C)C(=O)N[C@@H](CCC(N)=O)C(=O)N[C@@H](CCC(=O)O)C(=O)N[C@@H](Cc1ccccc1)C(=O)N[C@H](C(=O)NC(C)(C)C(=O)N[C@@H](Cc1c[nH]c2ccccc12)C(=O)N[C@@H](CC(C)C)C(=O)N[C@@H](CCC(=O)O)C(=O)N[C@@H](CC(=O)O)C(=O)N[C@@H](CCC(=O)O)C(=O)N1CCC[C@H]1C(=O)N[C@@H](CO)C(=O)N[C@@H](CO)C(=O)N[C@@H](CCCCN)C(=O)N[C@@H](CCC(=O)O)C(=O)N1CCC[C@H]1C(=O)N1CCC[C@H]1C(=O)N1CCC[C@H]1C(=O)N[C@@H](CO)C(=O)O)C(C)C` [Compound A54] (H-YSHGTFTSDYSKYLD[Aib]KRAQEFV[Aib]WLEDEPSSKEPPPS-OH; N-terminus assumed), the EC50 at human GLP-1R was > 1 nM. Moreover, the clearance in “in vivo” is 24 mL/min/kg.

Consider `CC(C)C[C@H](NC(=O)[C@H](Cc1ccc(O)cc1)NC(=O)[C@H](CCCCN)NC(=O)[C@H](CO)NC(=O)[C@H](Cc1ccc(O)cc1)NC(=O)[C@H](CC(=O)O)NC(=O)[C@H](CO)NC(=O)[C@@H](NC(=O)[C@H](Cc1ccccc1)NC(=O)[C@@H](NC(=O)CNC(=O)[C@H](Cc1c[nH]cn1)NC(=O)[C@H](CO)NC(=O)[C@@H](N)Cc1ccc(O)cc1)[C@@H](C)O)[C@@H](C)O)C(=O)N[C@@H](CC(=O)O)C(=O)NC(C)(C)C(=O)N[C@@H](CCCCN)C(=O)N[C@@H](CCCNC(=N)N)C(=O)N[C@@H](C)C(=O)N[C@@H](CCC(N)=O)C(=O)N[C@@H](CCC(=O)O)C(=O)N[C@@H](Cc1ccccc1)C(=O)N[C@H](C(=O)NC(C)(C)C(=O)N[C@@H](Cc1c[nH]c2ccccc12)C(=O)N[C@@H](CC(C)C)C(=O)N[C@@H](CCC(=O)O)C(=O)N[C@@H](CC(=O)O)C(=O)N[C@@H](CCC(=O)O)C(=O)N1CCC[C@H]1C(=O)N[C@@H](CCCCN)C(=O)N[C@@H](CO)C(=O)N[C@@H](CCCCN)C(=O)N[C@@H](C)C(=O)N1CCC[C@H]1C(=O)N1CCC[C@H]1C(=O)N1CCC[C@H]1C(=O)N[C@@H](CO)C(=O)O)C(C)C` [Compound A56] (H-YSHGTFTSDYSKYLD[Aib]KRAQEFV[Aib]WLEDEPKSKAPPPS-OH; N-terminus assumed), for which, at human GLP-1R, the 50% effective concentration (EC50) is > 1 nM. Also, the clearance in “in vivo” turned out to be 39.9 mL/min/kg.

As for `CC(C)C[C@H](NC(=O)[C@H](Cc1ccc(O)cc1)NC(=O)[C@H](CCCCN)NC(=O)[C@H](CO)NC(=O)[C@H](Cc1ccc(O)cc1)NC(=O)[C@H](CC(=O)O)NC(=O)[C@H](CO)NC(=O)[C@@H](NC(=O)[C@H](Cc1ccccc1)NC(=O)[C@@H](NC(=O)CNC(=O)[C@H](Cc1c[nH]cn1)NC(=O)[C@H](CO)NC(=O)[C@@H](N)Cc1ccc(O)cc1)[C@@H](C)O)[C@@H](C)O)C(=O)N[C@@H](CC(=O)O)C(=O)NC(C)(C)C(=O)N[C@@H](CCCCN)C(=O)N[C@@H](CCCNC(=N)N)C(=O)N[C@@H](C)C(=O)N[C@@H](CCC(N)=O)C(=O)N[C@@H](CCC(=O)O)C(=O)N[C@@H](Cc1ccccc1)C(=O)N[C@H](C(=O)NC(C)(C)C(=O)N[C@@H](Cc1c[nH]c2ccccc12)C(=O)N[C@@H](CC(C)C)C(=O)N[C@@H](CCC(=O)O)C(=O)N[C@@H](CC(=O)O)C(=O)N[C@@H](CCC(=O)O)C(=O)N1CCC[C@H]1C(=O)N[C@@H](CCCCN)C(=O)N[C@@H](CO)C(=O)N[C@@H](CCCCN)C(=O)N[C@@H](CO)C(=O)N1CCC[C@H]1C(=O)N1CCC[C@H]1C(=O)N1CCC[C@H]1C(=O)N[C@@H](CO)C(=O)O)C(C)C` [Compound A58] (H-YSHGTFTSDYSKYLD[Aib]KRAQEFV[Aib]WLEDEPKSKSPPPS-OH; N-terminus assumed), at human GLP-1R, the EC50 is > 1 nM. Moreover, the clearance in the data set “in vivo” came out at 37.7 mL/min/kg.

Take `CC(C)C[C@H](NC(=O)[C@H](Cc1ccc(O)cc1)NC(=O)[C@H](CCCCN)NC(=O)[C@H](CO)NC(=O)[C@H](Cc1ccc(O)cc1)NC(=O)[C@H](CC(=O)O)NC(=O)[C@H](CO)NC(=O)[C@@H](NC(=O)[C@H](Cc1ccccc1)NC(=O)[C@@H](NC(=O)CNC(=O)[C@H](Cc1c[nH]cn1)NC(=O)[C@H](CO)NC(=O)[C@@H](N)Cc1ccc(O)cc1)[C@@H](C)O)[C@@H](C)O)C(=O)N[C@@H](CC(=O)O)C(=O)N[C@@H](CO)C(=O)N[C@@H](C)C(=O)N[C@@H](CCCNC(=N)N)C(=O)N[C@@H](C)C(=O)N[C@@H](CCC(N)=O)C(=O)N[C@@H](CCC(=O)O)C(=O)N[C@@H](Cc1ccccc1)C(=O)N[C@H](C(=O)N[C@@H](CCCCN)C(=O)N[C@@H](Cc1c[nH]c2ccccc12)C(=O)N[C@@H](CC(C)C)C(=O)N[C@@H](CCC(=O)O)C(=O)N[C@@H](CC(=O)O)C(=O)N[C@@H](CCC(=O)O)C(=O)N1CCC[C@H]1C(=O)N[C@@H](CCCCN)C(=O)N[C@@H](CO)C(=O)N[C@@H](CCCCN)C(=O)N[C@@H](CCC(=O)O)C(=O)N1CCC[C@H]1C(=O)N1CCC[C@H]1C(=O)N1CCC[C@H]1C(=O)N[C@@H](CO)C(N)=O)C(C)C` [Compound A72] (H-YSHGTFTSDYSKYLDSARAQEFVKWLEDEPKSKEPPPS-NH2): the 50% effective concentration (EC50) on human GLP-1R is > 1 nM. In “in vivo”, this molecule returned a clearance of 31.3 mL/min/kg.
